Test system: 922993-354-T-J3-PDC complex spheroids, viability, % test/control
Test: Anticancer human tumor 922993-354-T-J3-PDC patient-derived endometrial carcinoma cell line growth inhibition [CLK]
Conditions: for IC50: curve of first compound; for viability, T/C: stronger effect = lower value
Outline: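 Multi-cell-type spheroids combined patient-derived tumor cells with HUVEC endothelial cells and human mesenchymal stem cells. Paired agents were dosed in half-log steps down from about clinical Cmax, or from 10 microM where Cmax was unknown.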

[1] = second compound 0.0316 µM, first compound 0.0316 µM
[2] = second compound 0.0316 µM, first compound 0.1 µM
[3] = second compound 0.0316 µM, first compound 0.316 µM
[4] = second compound 0.0316 µM, first compound 1 µM
[5] = second compound 0.0316 µM, first compound 3.16 µM
[6] = second compound 0.0316 µM, first compound 10 µM
[7] = second compound 0.1 µM, first compound 0.0316 µM
[8] = second compound 0.1 µM, first compound 0.1 µM
[9] = second compound 0.1 µM, first compound 0.316 µM
[10] = second compound 0.1 µM, first compound 1 µM
[11] = second compound 0.1 µM, first compound 3.16 µM
[12] = second compound 0.1 µM, first compound 10 µM
[13] = second compound 0.316 µM, first compound 0.0316 µM
[14] = second compound 0.316 µM, first compound 0.1 µM
[15] = second compound 0.316 µM, first compound 0.316 µM
[16] = second compound 0.316 µM, first compound 1 µM
[17] = second compound 0.316 µM, first compound 3.16 µM
[18] = second compound 0.316 µM, first compound 10 µM
[19] = second compound 1 µM, first compound 0.0316 µM
[20] = second compound 1 µM, first compound 0.1 µM
[21] = second compound 1 µM, first compound 0.316 µM
[22] = second compound 1 µM, first compound 1 µM
[23] = second compound 1 µM, first compound 3.16 µM
[24] = second compound 1 µM, first compound 10 µM
[25] = second compound 3.16 µM, first compound 0.0316 µM
[26] = second compound 3.16 µM, first compound 0.1 µM
[27] = second compound 3.16 µM, first compound 0.316 µM
[28] = second compound 3.16 µM, first compound 1 µM
[29] = second compound 3.16 µM, first compound 3.16 µM
[30] = second compound 3.16 µM, first compound 10 µM
[31] = second compound 10 µM, first compound 0.0316 µM
[32] = second compound 10 µM, first compound 0.1 µM
[33] = second compound 10 µM, first compound 0.316 µM
[34] = second compound 10 µM, first compound 1 µM
[35] = second compound 10 µM, first compound 3.16 µM
[36] = second compound 10 µM, first compound 10 µM
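Note: spheroids exposed to the agents for 7 days before readout.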

Which results are given for CCCS(=O)(=O)Nc1ccc(F)c(C(=O)c2c[nH]c3ncc(-c4ccc(Cl)cc4)cc23)c1F + CNC(=O)c1ccc(Nc2nc(OC3CCCC3)c3c(-c4ccc5nc(C)oc5c4)c[nH]c3n2)c(OC)c1?
IC50 (second compound 0.0316 µM): > 10000 nM; IC50 (second compound 0.1 µM): > 10000 nM; IC50 (second compound 0.316 µM): 650 nM; IC50 (second compound 1 µM): < 31.6 nM; IC50 (second compound 3.16 µM): < 31.6 nM; IC50 (second compound 10 µM): < 31.6 nM; viability, T/C [1]: 96.5%; viability, T/C [2]: 93.9%; viability, T/C [3]: 109%; viability, T/C [4]: 103%; viability, T/C [5]: 90.9%; viability, T/C [6]: 74.4%; viability, T/C [7]: 110%; viability, T/C [8]: 103%; viability, T/C [9]: 109%; viability, T/C [10]: 113%; viability, T/C [11]: 85.2%; viability, T/C [12]: 67.6%; viability, T/C [13]: 70.8%; viability, T/C [14]: 73.4%; viability, T/C [15]: 57.9%; viability, T/C [16]: 46.5%; viability, T/C [17]: 49.1%; viability, T/C [18]: 40.2%; viability, T/C [19]: 40.2%; viability, T/C [20]: 32.9%; viability, T/C [21]: 32.8%; viability, T/C [22]: 35.4%; viability, T/C [23]: 31.8%; viability, T/C [24]: 24.3%; viability, T/C [25]: 32%; viability, T/C [26]: 31.3%; viability, T/C [27]: 30.3%; viability, T/C [28]: 30.2%; viability, T/C [29]: 27.7%; viability, T/C [30]: 24%; viability, T/C [31]: 30.3%; viability, T/C [32]: 31.7%; viability, T/C [33]: 27.4%; viability, T/C [34]: 29.6%; viability, T/C [35]: 26.7%; viability, T/C [36]: 23.1%

How did the IC50 (second compound 0.0316 µM) turn out when COC1C=CCC(C)C(C)S(=O)(=O)NC(=O)c2ccc3c(c2)N(CC2CCC21)CC1(CCCc2cc(Cl)ccc21)CO3 (centres undefined) + CNC(=O)c1ccc(Nc2nc(OC3CCCC3)c3c(-c4ccc5nc(C)oc5c4)c[nH]c3n2)c(OC)c1 was run?
The IC50 was 6370 nM.

And the IC50 (second compound 0.1 µM)?
The IC50 was 6790 nM.

And the IC50 (second compound 0.316 µM)?
The IC50 was 2250 nM.

What about the IC50 (second compound 1 µM) of the same compound?
Its IC50 is under 31.6 nM.

And the IC50 (second compound 3.16 µM)?
Its IC50 is under 31.6 nM.

And the IC50 (second compound 10 µM)?
The IC50 was under 31.6 nM.

What about the viability, T/C [1] of the same compound?
Its viability, T/C is 111%.

And the viability, T/C [2]?
The viability, T/C was 117%.

And the viability, T/C [3]?
The viability, T/C was 104%.

And the viability, T/C [4]?
The viability, T/C was 98.9%.

And the viability, T/C [5]?
Its viability, T/C is 90.4%.

And the viability, T/C [6]?
Its viability, T/C is 25.6%.

What about the viability, T/C [7] of the same compound?
Its viability, T/C is 114%.

And the viability, T/C [8]?
Its viability, T/C is 99.6%.

What about the viability, T/C [9] of the same compound?
The viability, T/C was 107%.

And the viability, T/C [10]?
The viability, T/C was 105%.

What about the viability, T/C [11] of the same compound?
The viability, T/C was 103%.

What about the viability, T/C [12] of the same compound?
The viability, T/C was 23%.

What about the viability, T/C [13] of the same compound?
The viability, T/C was 64.6%.

And the viability, T/C [14]?
The viability, T/C was 70.2%.

What about the viability, T/C [15] of the same compound?
The viability, T/C was 66.1%.

And the viability, T/C [16]?
The viability, T/C was 57%.

What about the viability, T/C [17] of the same compound?
The viability, T/C was 47.5%.

What about the viability, T/C [18] of the same compound?
Its viability, T/C is 17.9%.

What about the viability, T/C [19] of the same compound?
Its viability, T/C is 33.7%.

And the viability, T/C [20]?
The viability, T/C was 39%.

What about the viability, T/C [21] of the same compound?
The viability, T/C was 32.1%.

What about the viability, T/C [22] of the same compound?
Its viability, T/C is 27.7%.

What about the viability, T/C [23] of the same compound?
Its viability, T/C is 21.2%.

And the viability, T/C [24]?
The viability, T/C was 11%.

And the viability, T/C [25]?
The viability, T/C was 27.3%.

What about the viability, T/C [26] of the same compound?
The viability, T/C was 30.2%.

What about the viability, T/C [27] of the same compound?
The viability, T/C was 25.7%.

What about the viability, T/C [28] of the same compound?
The viability, T/C was 20.8%.

And the viability, T/C [29]?
Its viability, T/C is 16.5%.

And the viability, T/C [30]?
The viability, T/C was 9.29%.

And the viability, T/C [31]?
The viability, T/C was 29.8%.

And the viability, T/C [32]?
Its viability, T/C is 25.2%.

What about the viability, T/C [33] of the same compound?
The viability, T/C was 23.3%.

What about the viability, T/C [34] of the same compound?
The viability, T/C was 17.3%.

What about the viability, T/C [35] of the same compound?
Its viability, T/C is 13.4%.

What about the viability, T/C [36] of the same compound?
Its viability, T/C is 10.7%.

Reference: PubChem BioAssay AID2060606 (Molecular Pharmacology Branch, DTP, NCI, 2025)
